Measured values: ChEMBL document CHEMBL1155783, “Novel sterically hindered cannabinoid CB1 receptor ligands” (Bioorg Med Chem, 2008)
Calls of active or inactive are those of the source. No cut-off for these calls is given here.

Assays:
Cannabinoid receptor 1 = Cannabinoid receptor 1 (Homo sapiens, UniProt P21554); assay: biochemical; assay type: cell-based, HEK293
Description: Displacement of [3H]CP-55940 from human recombinant CB1 receptor expressed in HEK cells

Cannabinoid receptor 2 = Cannabinoid receptor 2 (Homo sapiens, UniProt P34972); assay: Displacement of [3H]CP-55940 from human recombinant CB2 receptor expressed in HEK cells; assay type: cell-based, HEK293
Homo sapiens = organism: Homo sapiens; assay: Selectivity of Ki for human recombinant CB1 receptor over Ki for human recombinant CB2 receptor
[1] = molecular target: Cannabinoid receptor 1 (Mus musculus) (UniProt P47746); assay: Agonist activity at mouse CB1 receptor in N18TG2 cells assessed as inhibition of forskolin-stimulated cAMP formation at 1 uM in presence of 0.1 uM WIN-55212-2
Chain of Cannabinoid receptor 1 (Mus musculus) (P47746 whole entry, looked up): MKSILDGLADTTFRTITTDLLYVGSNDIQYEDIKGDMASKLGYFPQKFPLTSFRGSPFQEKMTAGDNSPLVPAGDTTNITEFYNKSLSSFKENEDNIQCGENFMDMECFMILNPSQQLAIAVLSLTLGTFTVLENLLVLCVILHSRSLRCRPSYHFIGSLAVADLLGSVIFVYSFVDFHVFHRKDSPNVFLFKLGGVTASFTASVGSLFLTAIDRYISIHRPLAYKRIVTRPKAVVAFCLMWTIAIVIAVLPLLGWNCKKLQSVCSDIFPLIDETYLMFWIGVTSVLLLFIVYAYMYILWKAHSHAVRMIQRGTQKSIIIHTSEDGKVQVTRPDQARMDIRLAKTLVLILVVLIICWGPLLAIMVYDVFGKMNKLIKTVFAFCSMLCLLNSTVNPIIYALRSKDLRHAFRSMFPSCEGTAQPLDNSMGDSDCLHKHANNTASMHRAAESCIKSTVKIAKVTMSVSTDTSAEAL

Chain of Cannabinoid receptor 1 (P21554 whole entry): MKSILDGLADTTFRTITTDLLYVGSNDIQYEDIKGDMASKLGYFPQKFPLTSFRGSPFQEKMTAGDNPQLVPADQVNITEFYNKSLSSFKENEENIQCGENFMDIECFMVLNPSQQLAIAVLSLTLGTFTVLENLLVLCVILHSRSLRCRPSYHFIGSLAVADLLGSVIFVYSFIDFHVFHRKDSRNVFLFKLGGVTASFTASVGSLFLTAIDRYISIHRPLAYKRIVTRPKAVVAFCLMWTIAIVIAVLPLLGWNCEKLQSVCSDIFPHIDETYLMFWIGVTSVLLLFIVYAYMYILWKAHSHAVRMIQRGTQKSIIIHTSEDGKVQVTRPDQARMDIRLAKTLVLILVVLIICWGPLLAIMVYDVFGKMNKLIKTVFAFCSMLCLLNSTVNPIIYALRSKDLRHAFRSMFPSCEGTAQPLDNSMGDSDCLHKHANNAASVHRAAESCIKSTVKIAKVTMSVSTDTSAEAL
Chain of Cannabinoid receptor 2 (P34972 whole entry): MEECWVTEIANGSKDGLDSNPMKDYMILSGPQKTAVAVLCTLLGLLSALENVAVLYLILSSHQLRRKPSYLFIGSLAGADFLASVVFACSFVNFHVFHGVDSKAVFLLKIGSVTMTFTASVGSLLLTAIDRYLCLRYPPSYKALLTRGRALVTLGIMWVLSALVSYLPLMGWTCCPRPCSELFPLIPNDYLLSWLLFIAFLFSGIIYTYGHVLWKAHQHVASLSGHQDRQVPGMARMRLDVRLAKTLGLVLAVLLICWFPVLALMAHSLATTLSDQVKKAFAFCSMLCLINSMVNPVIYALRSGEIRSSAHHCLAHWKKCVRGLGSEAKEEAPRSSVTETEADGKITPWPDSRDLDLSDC

Row | SMILES | Ki (Cannabinoid receptor 1) | Ki (Cannabinoid receptor 2) | Ratio Ki (Homo sapiens) | Activity [1]
1 | O=C(NCCC(c1ccccc1)c1ccccc1)C(O)(c1ccccc1)c1ccccc1 | 2200 nM | 2300 nM |  | 
2 | O=C(NCCC(c1ccccc1)c1ccccc1)C(c1ccccc1)c1ccc([N+](=O)[O-])cc1 (stereo unspecified) | 560 nM | 790 nM |  | 
3 | O=C(NCCCc1ccccc1)C(c1ccccc1)c1ccccc1 | 3400 nM | > 7900 nM |  | 
4 | O=C(NCCCc1ccccc1)C(c1ccccc1)c1ccc(Br)cc1 (stereo unspecified) | 1900 nM | 1800 nM |  | 
5 | CC(C(=O)NCCC(c1ccccc1)c1ccccc1)(c1ccccc1)c1ccccc1 | 560 nM | 290 nM |  | 
6 | O=C(Cc1ccc(Cl)cc1)NCCC(c1ccccc1)c1ccccc1 | 1600 nM | 2400 nM |  | 
7 | Cc1ccc(C(C(=O)NCCC(c2ccccc2)c2ccccc2)c2ccccc2)cc1 (stereo unspecified) | 560 nM | 650 nM |  | 
8 | O=C(NCCCc1ccccc1)C(c1ccccc1)c1ccc(Cl)cc1 (stereo unspecified) | 2200 nM | 2400 nM |  | 
9 | O=C(Cc1ccccc1)NCCC(c1ccccc1)c1ccccc1 | 560 nM | > 7900 nM |  | 
10 | O=C(NCCC(c1ccccc1)c1ccccc1)C(c1ccccc1)c1ccc(O)cc1 (stereo unspecified) | 560 nM | 1100 nM |  | 
11 | O=C(NCCC(c1ccccc1)c1ccccc1)C(Cl)(c1ccccc1)c1ccccc1 | 280 nM | 1400 nM |  | 
12 | O=C(NCCC(c1ccccc1)c1ccccc1)C(c1ccccc1)c1ccc(Br)cc1 (stereo unspecified) | 220 nM | > 7900 nM |  | 

The remaining compounds from weak to strong by Ki (Cannabinoid receptor 1), led by results:

Row | Ki (Cannabinoid receptor 1) | Ki (Cannabinoid receptor 2) | Ratio Ki (Homo sapiens) | Activity [1] | SMILES
13 | 900 nM | 1200 nM |  |  | Nc1ccc(C(C(=O)NCCC(c2ccccc2)c2ccccc2)c2ccccc2)cc1 (stereo unspecified)
14 | 800 nM | 1300 nM |  |  | O=C(Cc1ccc(Br)cc1)NCCC(c1ccccc1)c1ccccc1
15 | 560 nM | > 7900 nM |  |  | O=C(NCCC(c1ccccc1)c1ccccc1)C(c1ccccc1)c1ccc(Cl)cc1 (stereo unspecified)
16 | 560 nM | 790 nM |  |  | COc1ccc(C(C(=O)NCCC(c2ccccc2)c2ccccc2)c2ccccc2)cc1 (stereo unspecified)
17 | 58 nM | 7900 nM | 140 | inactive | O=C(NCCC(c1ccccc1)c1ccccc1)C(c1ccccc1)c1ccccc1
